36 compounds from patent EP0973746B1, “SUBSTITUTED 3-CYANO QUINOLINES” (Wyeth Holdings Corporation, priority 1997, dated 1998) can be followed below.

What is called IC50 is the midpoint of a concentration-inhibition curve.

The test system of one assay is SW620. The assay is described as follows: Inhibition of cancer cell growth as measured by cell number, SW620.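 On all read-outs here: SW620 was included as a cell line with little or no EGFR or HER2/neu expression, in contrast to receptor-overexpressing lines.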 The assay is classed as cell-based, human. Particulars: Table 8; for IC50: Homo sapiens, SW-620, 48 h.
For a further assay, the system named is A431. The assay is described as follows: Inhibition of cancer cell growth as measured by cell number, A431.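 Further: human A431 line, picked because it overexpresses epidermal growth factor receptor (EGFR).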 The assay is classed as cell-based, human. As to conditions: Homo sapiens, A-431, 48 h, Table 8.
Another assay has as its system SKBR3. The assay can be described thus: Inhibition of cancer cell growth as measured by cell number, SKBR3.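 On all read-outs here: SK-BR-3 cells were selected as a line overexpressing HER2/neu.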 It counts as cell-based, human. Particulars: Table 8; for IC50: Homo sapiens.
The target of assay [1] is recombinant human MEK 1 (MAPKK) and recombinant human ERK2 (MAPK). The assay can be described thus: Mitogen Activated Protein Kinase (MAPK) assay, two component coupled MEK 1 / ERK2.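 Further: MEK 1-activated ERK2 phosphorylates MBP or Myc peptide with 33P-ATP, filter capture and scintillation counting, inhibitor preincubated with ERK2 30 min at 0 °C, inhibition relative to uninhibited control.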 It counts as biochemical. Particulars: separate entries for the same compound = evaluated more than one time.
Where [2] appears, read: cell number, Sulforhodamine B, 48 hours exposure, read-out: IC50 SW620.
[3] abbreviates: cell number, Sulforhodamine B, 48 hours exposure, read-out: IC50 A431.
The mark [4] stands for this setting: SK-BR-3, cell number, Sulforhodamine B, 48 hours exposure, read-out: IC50 SKBR3.
Setting [5] is: cell number, Sulforhodamine B, 48 hours exposure.
[6] abbreviates: read-out: IC50 SW620, cell number, Sulforhodamine B, 48 hours exposure.
[7] abbreviates: SK-BR-3, 48 h, read-out: IC50 SKBR3, cell number, Sulforhodamine B, 48 hours exposure.

Values after ≈ are worked out from the molar mass of the structure shown. Values joined by “and” are separate entries in the source; they are usually repeats but may differ in a detail not shown here. Equal entries are not always repeated. Where two headings read alike, the source gives them in different places.

Excerpt for A431: (§1) The cell lines were chosen since they overexpressed epidermal growth factor receptor (EGFR) (i.e. A431) or HER2/neu (SKBR3), or had little to no expression of the these receptors (SW620, LOX, MCF7).
Excerpt for SKBR3: as §1
Excerpt for SW620: as §1

Turning to `C=CC(=O)Nc1cc(CN(C)C)c2ncc(C#N)c(Nc3cccc(Br)c3)c2c1` [Example 111, N-{4-[(3-Bromophenyl)amino]-3-cyano-8-dimethylaminomethyl-6-quinolinyl}-2-propenamide], the IC50 in the assay with SW620 (setting [2]) turned out to be 2.02 µg/mL (≈ 4.48 µM); in the assay on A431 (setting [3]), 3.05 µg/mL (≈ 6.76 µM); in the assay on SKBR3 (setting [4]), 3.32 µg/mL (≈ 7.38 µM).
Consider `CCOc1cc2ncc(C#N)c(NCc3ccccc3)c2cc1OCC` [Example 62, 4-(3-Phenylmethylamino)-6,7-diethoxy-3-quinolinecarbonitrile], for which the “IC50 SW620” value with SW620 (setting [5]) amounted to 0.3 µg/mL (≈ 0.864 µM). The “IC50 SKBR3” value with SKBR3 (setting [5]) worked out at 0.3 µg/mL (≈ 0.864 µM).
Regarding `CCOc1cc2ncc(C#N)c(NCc3ccc(Cl)c(Cl)c3)c2cc1OCC` [Example 64, 4-(3.4-Dichlorophenylmethylamino)-6,7-diethoxy-3-quinolinecarbonitrile], the IC50 in assay [1] came out at 3 µM. In addition, in the assay with SW620 (setting [5]), the “IC50 SW620” value came to 1.603 µg/mL (≈ 3.85 µM). Also, in the assay on SKBR3 (setting [5]), the “IC50 SKBR3” value stood at 1.965 µg/mL (≈ 4.72 µM).
As for `CCOc1cc2ncc(C#N)c(NCc3cccc(Br)c3)c2cc1OCC` [Example 61, 4-(3-Bromophenylmethylamino)-6,7-diethoxy-3-quinolinecarbonitrile], the IC50 was over 100 µM in assay [1], 1.07 µg/mL (≈ 2.5 µM) in the assay with SW620 (setting [2]), 0.341 µg/mL (≈ 0.8 µM) in the assay on A431 (setting [3]) and 1.09 µg/mL (≈ 2.57 µM) with SKBR3 (setting [4]).
As for `CC(=O)Nc1cc(CN(C)C)c2ncc(C#N)c(Nc3cccc(Br)c3)c2c1` [Example 112, N-{4-[(3-Bromophenyl)amino]-3-cyano-8-dimethylaminomethyl-6-quinolinyl} acetamide], the IC50 was over 100 µM in assay [1]; over 5 µg/mL in the assay on SW620 (setting [6]); over 5 µg/mL in the assay on A431 (read-out: IC50 A431, cell number, Sulforhodamine B, 48 hours exposure); over 5 µg/mL in the assay with SKBR3 (setting [7]).
On to `N#Cc1cnc2ccc([N+](=O)[O-])cc2c1Nc1cccc(OC(F)(F)F)c1` [Example 365, 4-[(3-Trifluoromethoxyphenyl)amino]-6-nitro-3-quinolinecarbonitrile], for which the IC50 in assay [1] was over 100 µM.
On the same count and under the same terms, the figure for `CC#CC(=O)Nc1ccc2ncc(C#N)c(Nc3cccc(C(C)C)c3)c2c1` [Example 354, N-{3-Cyano-4-[(3-isopropylphenyl)amino]-6-quinolinyl}-2-butynamide] is over 100 µM; for `COc1cc(N)cc2c(Nc3ccc(C)c(O)c3)c(C#N)cnc12` [Example 344, 6-Amino-4-(3-hydroxy-4-methyl-phenylamino)-8-methoxy-quinoline-3-carbonitrile] it is over 100 µM; for `CCOc1cc2ncc(C#N)c(Nc3cccc(C(C)=O)c3)c2cc1OCC` [Example 257, 4-(3-acetylphenylamino)-6,7-diethoxy-3-quinolinecarbonitrile] it is over 100 µM.
As to `COc1cc2ncc(C#N)c(Nc3cccc(CCl)c3)c2cc1OC` [Example 268, 4-[3-(Chloromethyl)phenylamino]-6,7-dimethoxy-3-quinolinecarbonitrile], in assay [1], the IC50 turned out to be 15 µM.
On the same count and under the same terms, the figure for `Cc1cccc(Nc2c(C#N)cnc3ccc([N+](=O)[O-])cc23)c1` [Example 134] is > 100 µM and 80 µM.
For the compound `C=C(CN1CCOCC1)C(=O)Nc1ccc2ncc(C#N)c(Nc3ccc(F)c(Cl)c3)c2c1` [Example 148, N-{4-[(3-chloro-4-fluorophenyl)amino]-3-cyano-6-quinolinyl}-2-morpholin-4-ylmethyl-2-propenamide], the results for the IC50 in the assay on SW620 (setting [6]) and with SKBR3 (setting [7]) were 0.26 µg/mL (≈ 0.558 µM) and 0.043 µg/mL (≈ 0.0923 µM), respectively.
Take `COc1cccc(Nc2c(C#N)cnc3ccc(N(C)C)cc23)c1.Cl` [Example 396, 6-Dimethylamino-4-(3-methoxyphenylamino)quinoline-3-carbonitrile Hydrochloride]: the IC50 in assay [1] amounted to 50 µM; in the assay with SW620 (setting [2]) it was 2.7 µg/mL; in the assay with A431 (setting [3]), 0.3 µg/mL; in the assay with SKBR3 (setting [4]) it was 0.2 µg/mL.
Turning to `CN(C)CC#CC(=O)Nc1ccc2ncc(C#N)c(Nc3ccc(F)c(Br)c3)c2c1` [Example 197, N-[4-[(3-Bromo-4-fluorophenyl)amino]-3-cyano-6-quinolinyl]-4-dimethylamino-2-butynamide], in assay [1], the IC50 was 35 µM.
As for `COc1cc2ncc(C#N)c(Nc3cc(O)c(Cl)cc3F)c2cc1OCCCN1CCOCC1` [Example 323, 4-(4-Chloro-2-fluoro-5-hydroxy-phenylamino)-7-methoxy-6-(3-morpholin-4-yl)-propoxyl-quinoline-3-carbonitrile], the IC50 in assay [1] is 15 µM.
`COc1cc2ncc(C#N)c(Nc3ccc(O)cc3Cl)c2cc1OC` [Example 296, 4-(2-Chloro-4-hydroxy-phenylamino)-6,7-dimethoxy-quinoline-3-carbonitrile]: in assay [1], the IC50 amounted to 3.5 µM.
On to `COc1cc2ncc(C#N)c(Nc3ccc(O)cc3O)c2cc1OC` [Example 300, 4-(2,4-Dihydroxy-phenylamino)-6,7-dimethoxy-quinoline-3-carbonitrile], for which the IC50 in assay [1] came to 20 µM.
Regarding `N#Cc1cnc2ccc(N)cc2c1Nc1ccc(F)c(Cl)c1` [Example 149, 6-Amino-4-[(3-chloro-4-fluorophenyl)amino]-3-quinolinecarbonitrile], the IC50 in assay [1] was 2 µM and 4 µM.
In the case of `COc1cc2ncc(C#N)c(Nc3cccc(NC(C)=O)c3)c2cc1OC` [Example 265, 4-(3-Acetamidophenylamino)-6,7-dimethoxy-3-quinolinecarbonitrile], the IC50 in assay [1] was 20 µM.
As to `CN(C)c1ccc(Nc2c(C#N)cnc3ccc(N)cc23)cc1` [Example 389, 6-Amino-4-(4-dimethylaminophenylamino)quinoline-3-carbonitrile], in assay [1], the IC50 is over 100 µM.
`COc1cc2ncc(C#N)c(Nc3ccc(CCO)cc3)c2cc1OC` [Example 299, 4-[4-(2-Hydroxy-ethyl)-phenylamino]-6,7-dimethoxy-quinoline-3-carbonitrile]: the IC50 in assay [1] was over 100 µM.
As for `COc1cc([N+](=O)[O-])cc2c(Nc3ccc(C)c(O)c3)c(C#N)cnc12` [Example 341, 4-(3-Hydroxy-4-methyl-phenylamino)-8-methoxy-6-nitro-quinoline-3-carbonitrile], the IC50 in assay [1] was over 100 µM.
Turning to `N#Cc1cnc2ccc(N)cc2c1Nc1cccc(F)c1` [Example 385, 6-Amino-4-(3-fluorophenylamino)quinoline-3-carbonitrile], the IC50 in assay [1] turned out to be 90 µM.
On the same count and under the same terms, under `COc1cc2ncc(C#N)c(Nc3cccc(Br)c3)c2cc1OCCCN1CCOCC1` [Example 126] stands over 100 µM; under `CC#CC(=O)Nc1ccc2ncc(C#N)c(Nc3cccc(F)c3)c2c1` [Example 390, But-2-ynoic Acid [4-(3-Fluorophenylamino)-3-cyanoquinolin-6-yl]amide], over 100 µM.
On to `CCC(=O)Nc1ccc2ncc(C#N)c(Nc3cccc(Br)c3)c2c1` [Example 381, N-[4-(3-Bromophenylamino)-3-cyanoquinolin-6-yl]propionamide], for which, in assay [1], the IC50 was over 100 µM.
On to `CC#CC(=O)Nc1ccc2ncc(C#N)c(Nc3ccc(N(C)C)cc3)c2c1` [Example 394, But-2-ynoic Acid [3-Cyano-4-(4-dimethylaminophenylamino)quinolin-6-yl]amide], for which the IC50 in assay [1] is over 100 µM.
In the case of `CC(C)c1cccc(Nc2c(C#N)cnc3ccc(N)cc23)c1` [Example 356, 6-Amino-4-[(3-isopropylphenyl)amino]-3-quinolinecarbonitrile], the IC50 in assay [1] was over 100 µM.
Regarding `CCCOc1cc2ncc(C#N)c(Nc3cccc(Br)c3)c2cc1OCCC` [Example 303, 4-(3-Bromophenylamino)-6.7-di-n-propoxy-3-quinolinecarbonitrile], the IC50 in assay [1] is over 100 µM.
Take `CC#CC(=O)Nc1ccc2ncc(C#N)c(Nc3cccc(Cl)c3)c2c1` [Example 353, N-{4-[(3-Chlorophenyl)amino]-3-cyano-6-quinolinyl}-2-butynamide]: the IC50 in assay [1] is 40 µM.
Consider `COc1cc2ncc(C#N)c(Nc3ccc(SC)cc3)c2cc1OC` [Example 298, 6.7-Dimethoxy-4-(4-methylsulfanyl-phenylamino)-quinoline-3-carbonitrile], for which, in assay [1], the IC50 was under 1 µM.
With `COCCOc1ccc2ncc(C#N)c(Nc3cccc(N(C)C)c3)c2c1OCCOC` [Example 117], the IC50 in assay [1] was 40 µM and 28 µM.
As for `COc1cc2ncc(C#N)c(Nc3cccnc3)c2cc1OC` [Example 293, 6,7-Dimethoxy-4-(pyridin-3-ylamino)-quinoline-3-carbonitrile], the IC50 in assay [1] is over 100 µM.
With `N#Cc1cnc2ccc(N)cc2c1Nc1ccc(Br)c(Br)c1` [Example 379, 6-Amino-4-(3,4-dibromophenylamino)quinoline-3-carbonitrile], the IC50 in assay [1] turned out to be 40 µM.
As to `CN(C)c1ccc(Nc2c(C#N)cnc3ccc([N+](=O)[O-])cc23)cc1` [Example 387, 4-(4-Dimethylaminophenylamino)-6-nitroquinoline-3-carbonitrile], the IC50 in assay [1] is over 100 µM.
In the case of `COc1cc2ncc(C#N)c(Nc3cccc(CO)c3C)c2cc1OC` [Example 333, 4-(3-Hydroxymethyl-2-methylphenylamino)-6,7-dimethoxyquinoline-3-carbonitrile], the IC50 in assay [1] was found to be 10 µM.
